Measured values taken from ChEMBL document CHEMBL5036320, “Discovery of Icenticaftor (QBW251), a Cystic Fibrosis Transmembrane Conductance Regulator Potentiator with Clinical Efficacy in Cystic Fibrosis and Chronic Obstructive Pulmonary Disease” (J Med Chem, 2021).
In brackets after ≈: the same amount, converted by molar mass.

Key:
[1] = Solubility of the compound at pH 6.8; assay type: physicochemical; conditions: buffer
[2] = target: Cystic fibrosis transmembrane conductance regulator (Homo sapiens, UniProt P13569, F508DEL); test: Potentiation of CFTR F508del mutant (unknown origin) expressed in CHO cells assessed as chloride transport by measuring membrane potential incubated for 5 to 30 mins in presence of forskolin by Quattro assay; assay type: cell-based
Chain of Cystic fibrosis transmembrane conductance regulator (Homo sapiens, UniProt P13569, F508DEL) (P13569 as listed by the source): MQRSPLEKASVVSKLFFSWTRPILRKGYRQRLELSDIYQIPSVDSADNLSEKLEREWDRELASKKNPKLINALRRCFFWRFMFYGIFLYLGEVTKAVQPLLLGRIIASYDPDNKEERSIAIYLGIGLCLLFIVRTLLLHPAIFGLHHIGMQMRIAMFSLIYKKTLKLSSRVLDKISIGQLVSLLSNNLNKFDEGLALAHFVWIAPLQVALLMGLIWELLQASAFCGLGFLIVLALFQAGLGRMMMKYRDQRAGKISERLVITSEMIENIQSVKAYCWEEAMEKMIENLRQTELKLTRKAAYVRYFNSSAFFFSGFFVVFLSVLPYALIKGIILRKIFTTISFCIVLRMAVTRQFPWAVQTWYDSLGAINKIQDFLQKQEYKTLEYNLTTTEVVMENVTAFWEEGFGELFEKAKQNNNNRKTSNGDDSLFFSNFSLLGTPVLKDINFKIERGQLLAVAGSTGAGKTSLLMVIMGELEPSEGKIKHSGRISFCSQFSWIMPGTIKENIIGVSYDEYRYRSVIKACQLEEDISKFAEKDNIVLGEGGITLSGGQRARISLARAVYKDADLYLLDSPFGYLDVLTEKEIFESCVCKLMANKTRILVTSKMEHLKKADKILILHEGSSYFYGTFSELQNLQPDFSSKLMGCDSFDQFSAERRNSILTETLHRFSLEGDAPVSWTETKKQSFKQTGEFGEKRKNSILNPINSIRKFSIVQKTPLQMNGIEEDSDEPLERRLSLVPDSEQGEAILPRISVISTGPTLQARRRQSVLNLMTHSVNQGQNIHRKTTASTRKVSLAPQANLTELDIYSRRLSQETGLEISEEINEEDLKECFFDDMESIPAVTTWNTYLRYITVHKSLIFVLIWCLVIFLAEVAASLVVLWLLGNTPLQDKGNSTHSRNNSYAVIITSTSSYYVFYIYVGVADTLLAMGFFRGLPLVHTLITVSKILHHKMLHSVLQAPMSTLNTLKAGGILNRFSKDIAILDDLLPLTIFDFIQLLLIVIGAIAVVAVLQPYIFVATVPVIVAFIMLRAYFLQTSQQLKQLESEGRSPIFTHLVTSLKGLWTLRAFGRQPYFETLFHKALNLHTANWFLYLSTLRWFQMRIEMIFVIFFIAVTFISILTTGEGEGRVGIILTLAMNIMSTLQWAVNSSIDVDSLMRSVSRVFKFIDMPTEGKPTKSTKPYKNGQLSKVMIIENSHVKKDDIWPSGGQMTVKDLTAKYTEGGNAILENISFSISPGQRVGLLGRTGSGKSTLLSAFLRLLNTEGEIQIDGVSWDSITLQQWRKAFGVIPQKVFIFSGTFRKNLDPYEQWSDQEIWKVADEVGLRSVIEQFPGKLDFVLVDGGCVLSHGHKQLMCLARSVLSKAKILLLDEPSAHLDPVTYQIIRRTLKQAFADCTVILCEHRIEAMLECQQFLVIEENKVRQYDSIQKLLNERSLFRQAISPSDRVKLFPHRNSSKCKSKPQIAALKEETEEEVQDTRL

[3] = test system: Cystic fibrosis transmembrane conductance regulator (Homo sapiens), P13569 [F508del]; test: Potentiation of CFTR F508del mutant (unknown origin) expressed in CHO cells assessed as chloride transport by measuring membrane potential incubated for 5 to 30 mins in presence of forskolin by Quattro assay relative to PG-01; assay type: cell-based; design: concentration or dose not given beside the values; conditions: time 5-30 min
Chain of Cystic fibrosis transmembrane conductance regulator (Homo sapiens), P13569 [F508del] (P13569 as listed by the source): as above

[4] = target: Cystic fibrosis transmembrane conductance regulator (Homo sapiens, UniProt P13569); test: Potentiation of wild-type CFTR (unknown origin) expressed in FRT cells assessed as chloride transport by measuring membrane potential in presence of forskolin relative to PG-01; assay type: cell-based; conditions: filed as activator
Chain of Cystic fibrosis transmembrane conductance regulator (Homo sapiens, UniProt P13569) (P13569 whole entry, looked up): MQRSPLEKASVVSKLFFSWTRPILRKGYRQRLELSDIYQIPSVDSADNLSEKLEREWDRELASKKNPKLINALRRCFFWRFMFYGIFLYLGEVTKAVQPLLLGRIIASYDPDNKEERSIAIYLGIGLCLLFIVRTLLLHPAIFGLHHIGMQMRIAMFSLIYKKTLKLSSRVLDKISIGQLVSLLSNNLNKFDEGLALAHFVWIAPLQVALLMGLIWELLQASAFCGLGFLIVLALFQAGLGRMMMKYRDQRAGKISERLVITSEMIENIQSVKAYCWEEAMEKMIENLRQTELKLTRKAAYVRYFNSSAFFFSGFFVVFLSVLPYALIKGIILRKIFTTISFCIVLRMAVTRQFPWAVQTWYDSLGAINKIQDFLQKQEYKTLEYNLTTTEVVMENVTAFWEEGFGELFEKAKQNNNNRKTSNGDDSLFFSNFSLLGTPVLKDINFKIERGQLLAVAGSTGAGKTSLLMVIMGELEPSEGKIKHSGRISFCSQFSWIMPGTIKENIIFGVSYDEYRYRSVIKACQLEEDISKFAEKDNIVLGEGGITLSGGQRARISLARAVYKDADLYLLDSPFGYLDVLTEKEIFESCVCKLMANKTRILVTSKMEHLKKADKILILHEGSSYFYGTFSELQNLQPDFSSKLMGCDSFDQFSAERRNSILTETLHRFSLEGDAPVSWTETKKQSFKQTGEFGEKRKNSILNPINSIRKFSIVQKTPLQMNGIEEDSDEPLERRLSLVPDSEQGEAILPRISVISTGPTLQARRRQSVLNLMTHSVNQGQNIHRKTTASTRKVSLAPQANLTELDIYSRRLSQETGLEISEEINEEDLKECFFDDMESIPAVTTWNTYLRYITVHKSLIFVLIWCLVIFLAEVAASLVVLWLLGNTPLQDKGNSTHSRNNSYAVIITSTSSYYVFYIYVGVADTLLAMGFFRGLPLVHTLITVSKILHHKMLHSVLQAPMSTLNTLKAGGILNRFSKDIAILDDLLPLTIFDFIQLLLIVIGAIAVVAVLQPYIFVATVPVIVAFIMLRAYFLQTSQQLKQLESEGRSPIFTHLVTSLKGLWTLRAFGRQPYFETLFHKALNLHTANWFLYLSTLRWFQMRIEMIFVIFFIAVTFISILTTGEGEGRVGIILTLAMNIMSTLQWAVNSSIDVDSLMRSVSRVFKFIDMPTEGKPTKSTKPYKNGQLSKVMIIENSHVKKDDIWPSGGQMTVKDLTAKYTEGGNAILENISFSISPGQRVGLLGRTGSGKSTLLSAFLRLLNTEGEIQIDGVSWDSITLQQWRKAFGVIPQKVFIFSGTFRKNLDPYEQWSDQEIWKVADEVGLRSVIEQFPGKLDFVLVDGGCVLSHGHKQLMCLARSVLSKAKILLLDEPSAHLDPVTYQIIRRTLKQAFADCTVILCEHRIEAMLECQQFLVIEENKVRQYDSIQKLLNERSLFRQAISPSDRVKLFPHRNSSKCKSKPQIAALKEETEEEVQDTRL

[5] = test system: Cystic fibrosis transmembrane conductance regulator (Homo sapiens), P13569 [F508del]; test: Potentiation of CFTR F508del mutant (unknown origin) expressed in FRT cells assessed as chloride transport by measuring membrane potential in presence of forskolin relative to PG-01; assay type: cell-based; conditions: filed as activator
[6] = test system: Cystic fibrosis transmembrane conductance regulator (Homo sapiens), P13569 [F508del]; test: Potentiation of CFTR F508del mutant (unknown origin) expressed in CHO cells assessed as chloride transport by measuring membrane potential preincubated for 5 mins followed by forskolin addition by FLIPR assay relative to PG-01; assay type: cell-based; conditions: filed as activator
[7] = Plasma protein binding in Beagle dog at 5 uM incubated for 4 hrs by equilibrium dialysis method; assay type: ADME, cell-free, Canis lupus familiaris; conditions: read-out: PPB (converted)
[8] = Plasma Protein binding in human incubated for 4 hrs by equilibrium dialysis method; assay type: ADME, cell-free; conditions: read-out: PPB (converted)
[9] = Plasma protein binding in cynomolgus monkey at 5 uM incubated for 4 hrs by equilibrium dialysis method; assay type: ADME, cell-free, Macaca fascicularis; conditions: read-out: PPB (converted)

Compound	solubility [1]	EC50 [2]	Activity ([3]; filed as activator)	also measured
COC(=O)c1cc(-c2ncco2)c(C(F)(F)F)cc1N	36 µg/mL (≈ 126 µM)	240 nM	92%	–
COC(=O)c1cc(-c2cccnc2)c(C(F)(F)F)cc1N	56 µg/mL (≈ 189 µM)	329 nM	100%	–
CNc1nc(C(=O)NCC(C)(O)C(F)(F)F)c(N)cc1C(F)(F)F (stereo in doubt; 30b)	–	–	95%	–
O=c1c(-c2ccc(O)cc2)coc2cc(O)cc(O)c12	–	–	88%	Activity [4]: 138%; Activity [5]: 54%; Activity [6]: 83%
CNc1nc(C(=O)NCC(C)(O)C(F)(F)F)c(N)cc1C(F)(F)F (stereo in doubt; 30a) [listing 1 of 2 here]	13 µg/mL (≈ 36.1 µM)	276 nM	–	–
COc1nc(C(=O)NC[14C](C)(O)C(F)(F)F)c(N)cc1C(F)(F)F (stereo not given)	–	–	–	fraction unbound at 4 h, 5 µM [7]: 0.052; fraction unbound at 4 h [8]: 0.077; fraction unbound at 4 h, 5 µM [9]: 0.12
CN(C)c1nc(C(=O)NCC(C)(O)C(F)(F)F)c(N)cc1C(F)(F)F (stereo in doubt; 31b)	–	–	93%	–
CNC(=O)c1nc(Br)c(C(F)(F)F)cc1N	–	250 nM	97%	–
CCc1nc(C(=O)NCC(C)(O)C(F)(F)F)c(N)cc1C(F)(F)F (stereo in doubt; 28b)	–	43 nM	–	–
Nc1cc(C(F)(F)F)c(Br)nc1C(=O)NC[C@H](O)C(F)(F)F	290 µg/mL (≈ 732 µM)	23 nM	102%	–
Nc1cc(C(F)(F)F)c(-c2ccco2)cc1C(=O)O	–	5830 nM	63%	–
CCc1nc(C(=O)NCC(C)(O)C(F)(F)F)c(N)cc1C(F)(F)F (stereo in doubt; 28a) [listing 1 of 2 here]	–	–	100%	–
CCc1nc(C(=O)NCC(C)(O)C(F)(F)F)c(N)cc1C(F)(F)F (stereo in doubt; 28a) [listing 2 of 2 here]	91 µg/mL (≈ 253 µM)	8 nM	–	–
CN(C)C(=O)c1cc(-c2ccco2)c(C(F)(F)F)cc1N	–	30000 nM	–	Activity [3]: 37%
COC(=O)c1cc(I)c(C(F)(F)F)cc1N	2 µg/mL (≈ 5.8 µM)	362 nM	104%	–
CC(C)(O)CNC(=O)c1nc(Br)c(C(F)(F)F)cc1N	28 µg/mL (≈ 78.6 µM)	77 nM	101%	–
COC(=O)c1cc(C2CCCO2)c(C(F)(F)F)cc1N (racemic)	6 µg/mL (≈ 20.7 µM)	462 nM	90%	–
CC(O)(CNC(=O)c1ncc(C(F)(F)F)cc1N)C(F)(F)F (racemic)	–	229 nM	78%	–
COC(=O)c1ccc(C(F)(F)F)cc1N	< 1 µg/mL	3780 nM	72%	–
CNc1nc(C(=O)NCC(C)(O)C(F)(F)F)c(N)cc1C(F)(F)F (stereo in doubt; 30a) [listing 2 of 2 here]	–	–	91%	–
